Laboratory results reported in patent US10072034B2, “Kinase inhibitors” (Respivert Limited, priority 2016, dated 2018).
In brackets after ≈: the same amount, converted by molar mass. Where two headings read alike, the source gives them in different places.

Columns and labels:
[1] = Solubility in fasted-state simulated colonic fluid (FaSSCoF) at pH 6.5; assay type: physicochemical; conditions: pH 6.5, 25° C.; for solubility thermodynamic at 24 h: fasted-state simulated colonic fluid (FaSSCoF), 25 °C, pH 6.5, fassgf or other biorelevant, thermodynamic from solid
Description: The solubilities of compounds of the invention in FaSSCoF at pH 6.5 are determined using a modification of a previously-reported procedure (Vertzoni, M., et al. Pharm. Res. 2010, 27, 2187-2196). In place of the bile salt extract employed in the original procedure (which extract is no longer available), the modified procedure uses a mixture of sodium taurocholate (0.15 g), glycocholic acid (0.15 g), ursodeoxycholic acid (0.05 g), cholic acid (0.05 g), and glycodeoxycholic acid (0.05 g). These five bile acids are ground together with a mortar and pestle to produce a fine white powder that is incorporated into the FaSSCoF, as outlined below.
FaSSCoF medium: Tris(hydroxymethyl)aminomethane (Tris; 0.275 g) and maleic acid (0.44 g) are dissolved in water (35 mL) to give a solution whose pH is adjusted to 6.5 by treatment with 0.5M NaOH (ca. 12 mL). The solution is then made up to 50 mL with water. A portion of this Tris/maleate buffer solution (ca. 25 mL) is added to a 0.5 L round-bottomed flask, before being treated with 0.00565 g of the bile acid mixture described above. Solutions of phosphatidylcholine (0.0111 g) in DCM (0.15 mL) and palmitic acid (0.0013 g) in DCM (0.15 mL) are added, then the organic solvent is evaporated off under reduced pressure at 40° C. until a clear solution, with no perceptible DCM odour, is achieved. The volume of the evaporated solution is adjusted to 50 mL by addition of the remainder of Tris/maleate buffer, then BSA (0.115 g) is added, before being dissolved by gentle agitation.
Solubility Determination: Test compounds are suspended in the pH 6.5 FaSSCoF medium to give a maximum final concentration of 2-10 mg/mL. The suspensions are equilibrated at 25° C. for 24 h, before being filtered through a glass fibre C filter. The filtrates are then diluted as appropriate for injection and quantification by HPLC with reference to a standard. Different volumes of the standard, diluted and undiluted sample solutions are injected and the solubilities are calculated using the peak areas determined by integration of the peak found at the same retention time as the principal peak in the standard injection.

[2] = tested on: SCID mice injected with CD45RBhigh cells; experiment: Adoptive transfer in mice (T cell driven model of colonic inflammation; assay (v)); assay type: in vivo; conditions: for % Inhibition (of induction window between naïve and vehicle animals, colon weight:length) / Colon weight:length: 3 mg/kg BID oral gavage, day 14 to day 49 (Reference Compound A lowered to 0.6 mg/kg on day 27)
Description: On Study day 0, female Balb/C mice are terminated and spleens obtained for CD45RB^high cell isolation (Using SCID IBD cell Separation protocol). Approximately 4×10^5 cells/mL CD45RB^high cells are then injected intraperitoneally (100 μL/mouse) into female SCID animals. On study day 14, mice are weighed and random/zed into treatment groups based on body weight. On Day 14, compounds are administered BID, via oral gavage, in 5% polyoxyethylene 40 stearate in 20 mM pH 7.8 aqueous phosphate buffer in a dose volume of 5 mL/kg. Treatment continues until study day 49, at which point the animals are necropsied 4 hours after the morning administration. The colon length and weight are recorded and used as a secondary endpoint in the study as a measurement of colon oedema. The colon is then divided into six cross-sections, four of which are used for histopathology scoring (primary endpoint) and two are homogenised for cytokine analysis. Data shown is the % inhibition of the induction window between naïve animals and vehicle animals, where higher inhibition implies closer to the non-diseased, naïve, phenotype.

[3] = Microcentrifuge dissolution test 1): transfer from intestinal buffer (IB) to colonic buffer (CB); assay type: physicochemical; conditions: PBS pH 6.5, 37° C.
[4] = as above; assay type: physicochemical; conditions: for Concentration, CB Timepoint 4 min: pH 7.2, 4 min; for Concentration, CB Timepoint 10 min: pH 7.2, 10 min; for Concentration, CB Timepoint 20 min: pH 7.2, 20 min; for Concentration, CB Timepoint 40 min: pH 7.2, 40 min; for Concentration, CB Timepoint 90 min: pH 7.2, 90 min; for Concentration, CB Timepoint 1,200 min: pH 7.2, 1,200 min; for Concentration, IB Timepoint −5 min / Concentration, IB Timepoint −15 min / Concentration, IB Timepoint −25 min: PBS pH 6.5, 37° C.; for Additional concentration, UCF Timepoint 90 min / Additional concentration, UCF Timepoint 1,200 min: after ultracentrifugation (free drug + drug in micelles); for Additional concentration, UCF Timepoint 90 min: CB pH 7.2, 90 min; for Additional concentration, UCF Timepoint 1,200 min: CB pH 7.2, 1,200 min
Description: In vitro non-sink dissolution performance of the Compound of Example 3 was evaluated alongside Reference Compounds A and B employing microcentrifuge dissolution tests in which samples were either 1) transferred from intestinal buffer (IB) to colonic buffer (CB) or 2) dosed directly into intestinal media containing simulated bile-salt micelles (IB-SIF). Dissolution performance of the compounds at various timepoints was determined by centrifugation and analysis of the supernatant concentrations by off-line reverse-phase HPLC analysis.
Test compounds (0.45 mg±0.05 mg) were weighed into a microcentrifuge tube, then 0.900 mL of IB receptor solution—phosphate buffered saline (PBS) warmed to 37° C. at pH 6.5—was added. A timer was started and the sample tubes were vortexed at the maximum setting for 1 minute. When the timer read 3, 13 and 23 min—corresponding to the 25, 15 and 5 min timepoints, respectively—the sample tubes were centrifuged for 1 min at 15,800 Relative Centrifugal Force (RCF). At each timepoint, a portion of the supernatant (50 μL) was added to diluent {250 μL of 75/25 THF/Water (v/v)} and the compound concentrations were measured by off-line HPLC analysis (Table 6a). After a further 5 min, 0.900 mL of CB receptor solution—pH 10.7 PBS solution—was added, such that the pH was adjusted to 7.2, and the timer was reset to 0 min. When the timer read 2, 8, 18, 38, 88 and 1,198 min—corresponding to the 4, 10, 20, 40, 90 and 1,200 min timepoints, respectively—the sample tubes were centrifuged for 1 min at 15,800 RCF. At each timepoint, a portion of the supernatant (50 μL) was added to diluent {250 μL of 75/25 THF/Water (v/v)} and the compound concentrations were measured by off-line HPLC analysis (Table 6a). The HPLC samples for the 90 and 1,200 min timepoints were additionally centrifuged for 8 min at 80,000 rpm at 37° C. in an ultracentrifuge (UCF), then the supernatant (50 μL) was added to diluent {250 μL of 75/25 THF/Water (v/v)} and the compound concentrations were measured by off-line HPLC analysis (Table 6b) to determine the concentration of free drug+drug in micelles.

[5] = Run 1, read-out: pH 6.5 FaSSCoF Solubility Run 1
[6] = Run 2, read-out: pH 6.5 FaSSCoF Solubility Run 2

Row | SMILES | solubility thermodynamic at 24 h [1, 5] [µg/mL] | solubility thermodynamic at 24 h [1, 6] [µg/mL] | % Inhibition (of induction window between naïve and vehicle animals, colon weight:length) [2] [%] | Colon weight:length [2] | Concentration, IB Timepoint −30 min [3] [ng/mL] | Concentration, CB Timepoint 4 min [4] [ng/mL] | Concentration, CB Timepoint 10 min [4] [ng/mL] | Concentration, CB Timepoint 20 min [4] [ng/mL] | Concentration, CB Timepoint 40 min [4] [ng/mL] | Concentration, CB Timepoint 90 min [4] [ng/mL] | Concentration, CB Timepoint 1,200 min [4] [ng/mL] | Concentration, IB Timepoint −5 min [4] [ng/mL] | Concentration, IB Timepoint −15 min [4] [ng/mL] | Concentration, IB Timepoint −25 min [4] [ng/mL] | Additional concentration, UCF Timepoint 90 min [4] [µg/mL] | Additional concentration, UCF Timepoint 1,200 min [4] [µg/mL] | pH 6.5 FaSSCoF Solubility Run 1 ([1]; 24 h, Run 1) [mg/mL] | pH 6.5 FaSSCoF Solubility Run 2 ([1]; 24 h, Run 2) [mg/mL] | Activity compared to the two Reference Compounds (colon weight to length ratio) ([2]; simple aqueous-based vehicle)
1 | C#Cc1cc(Nc2nccc(Oc3ccc(NC(=O)Nc4cc(C(C)(C)C)nn4-c4ccc(C)cc4)c4ccccc34)n2)cc(C(=O)NCCOCCOCCOC)c1 [Reference Compound B, 3-((4-((4-(3-(3-(tert-butyl)-1-(p-tolyl)-1H-pyrazol-5-yl)ureido)naphthalen-1-yl)oxy)pyrimidin-2-yl)amino)-5-ethynyl-N-(2-(2-(2-methoxyethoxy)ethoxy)ethyl)benzamide] | < 1 | < 1 | 11 | 0.041 ± 0.005 | 0 | 5000 | 1900 | 900 | 600 | 0 | 4900 | 2200 | 1000 | 1900 | 0.0 | 1.6 |  |  | 
2 | COc1cc(Nc2nccc(Oc3ccc(NC(=O)Nc4cc(C(C)(C)C)cc(NS(C)(=O)=O)c4OC)c4ccccc34)n2)cc(OCCOCCOCCC(=O)O)c1 [Reference Compound A, 3-(2-(2-(3-((4-((4-(3-(5-(tert-butyl)-2-methoxy-3-(methylsulfonamido)phenyl)ureido)naphthalen-1-yl)oxy)-pyrimidin-2-yl)amino)-5-methoxyphenoxy)ethoxy)ethoxy)propanoic acid] |  |  | −14 | 0.047 ± 0.007 | 0 | 11400 | 11500 | 10700 | 10700 | 8400 | 7900 | 5300 | 4600 | 2900 | 5.1 | 3.9 | 0.007 | 0.007 | 
3 | COc1cc(Nc2cc(Oc3ccc(NC(=O)Nc4cc(C(C)(C)C)cc(NS(C)(=O)=O)c4OC)c4ccccc34)ccn2)cc(OCCOCCOCC(=O)O)c1 [Example 3] | 280 (≈ 342 µM) | 200 (≈ 245 µM) | 49 | 0.032 ± 0.004 | 0 | 9300 | 9100 | 14300 | 48300 | 60700 | 85400 | 8500 | 7500 | 5300 | 34.1 | 74.9 |  |  | superior activity
